# According to ChEMBL document CHEMBL1150860, “Cox-2 inhibitory effects of naturally occurring and modified fatty acids” (J Nat Prod, 2001):
# Legend:
# [1] = biological target: T1, Prostaglandin G/H synthase 1 (Bos taurus, UniProt O62664); test: Inhibition of bovine COX1-mediated prostaglandin biosynthesis using [1-14C]arachidonic acid
# T1 sequence (O62664 whole entry): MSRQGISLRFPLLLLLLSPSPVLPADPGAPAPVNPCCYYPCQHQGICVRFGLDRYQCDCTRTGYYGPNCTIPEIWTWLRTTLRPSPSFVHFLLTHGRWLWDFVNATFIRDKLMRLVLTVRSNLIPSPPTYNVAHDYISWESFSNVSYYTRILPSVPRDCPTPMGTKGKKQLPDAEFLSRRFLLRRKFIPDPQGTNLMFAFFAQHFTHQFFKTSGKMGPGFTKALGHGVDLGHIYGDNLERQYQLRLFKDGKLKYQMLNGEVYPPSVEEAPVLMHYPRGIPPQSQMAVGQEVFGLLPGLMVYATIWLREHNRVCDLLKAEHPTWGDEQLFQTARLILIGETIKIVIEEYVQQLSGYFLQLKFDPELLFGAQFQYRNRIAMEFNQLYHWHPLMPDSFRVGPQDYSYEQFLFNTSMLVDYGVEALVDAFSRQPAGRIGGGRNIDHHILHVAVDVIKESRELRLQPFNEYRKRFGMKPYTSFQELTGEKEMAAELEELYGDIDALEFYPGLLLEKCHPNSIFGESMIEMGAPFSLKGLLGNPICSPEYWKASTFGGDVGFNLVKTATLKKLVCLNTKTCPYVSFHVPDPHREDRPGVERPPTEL
# [2] = biological target: T2, Prostaglandin G/H synthase 2 (Ovis aries, UniProt P79208); test: Inhibition of sheep COX2-mediated prostaglandin biosynthesis using [1-14C]arachidonic acid
# T2 sequence (P79208 whole entry): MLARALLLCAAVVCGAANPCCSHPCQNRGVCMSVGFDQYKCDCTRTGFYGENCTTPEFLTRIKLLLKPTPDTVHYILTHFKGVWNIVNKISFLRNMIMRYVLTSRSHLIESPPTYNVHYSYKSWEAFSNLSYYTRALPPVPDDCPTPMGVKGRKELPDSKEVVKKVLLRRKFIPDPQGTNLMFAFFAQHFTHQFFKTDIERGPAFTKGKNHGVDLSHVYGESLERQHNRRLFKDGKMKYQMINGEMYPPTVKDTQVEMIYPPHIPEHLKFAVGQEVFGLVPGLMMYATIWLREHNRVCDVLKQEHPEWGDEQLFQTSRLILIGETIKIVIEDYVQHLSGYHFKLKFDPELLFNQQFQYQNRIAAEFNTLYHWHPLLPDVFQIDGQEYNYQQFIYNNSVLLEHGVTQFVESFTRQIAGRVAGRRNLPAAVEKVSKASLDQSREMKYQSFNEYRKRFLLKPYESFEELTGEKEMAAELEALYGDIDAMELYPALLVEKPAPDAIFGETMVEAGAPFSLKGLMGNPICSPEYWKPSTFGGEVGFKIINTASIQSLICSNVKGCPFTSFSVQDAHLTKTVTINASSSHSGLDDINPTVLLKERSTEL
# [3] = Selectivity ratio for IC50 for sheep COX2 to IC50 for […]
SMILES,IC50 [1],IC50 [2],Ratio IC50 [3]
CCCCCCCCCCCCCCC(=O)O [PENTADECANOIC ACID],> 500 µM,> 500 µM,
CC/C=C\C/C=C\C/C=C\C/C=C\CCOCC(=O)O,> 500 µM,> 500 µM,
CC/C=C\C/C=C\C/C=C\C/C=C\CCSCC(=O)O,84 µM,160 µM,1.9
CC/C=C\C/C=C\C/C=C\CCCCCCCC(=O)O [LINOLENIC ACID],93 µM,12 µM,0.1
CC/C=C\C/C=C\C/C=C\CC/C=C/COCC(=O)O,> 500 µM,> 500 µM,
CC/C=C\C/C=C\C/C=C\CC/C=C/CSCCCC(=O)O,81 µM,120 µM,1.4
CCCCCCCC/C=C\CCCCCCCC(=O)O [OLEIC ACID],> 500 µM,> 500 µM,
CC/C=C\C/C=C\C/C=C\C/C=C\C/C=C\C/C=C\CCC(=O)O [DOCONEXENT],15 µM,9.8 µM,0.7
CCCCC/C=C\C/C=C\CCCCCCCC(=O)O [LINOLEIC ACID],170 µM,94 µM,0.6
CCCCCCCCCCCCCCCCCC(=O)O [STEARIC ACID],> 500 µM,> 500 µM,
CC/C=C\C/C=C\C/C=C\C/C=C\CC/C=C/COCC(=O)O,50 µM,180 µM,3.6
CCCCCCCCCCCCCCCC(=O)O [PALMITIC ACID],> 500 µM,> 500 µM,
CCCCCCCCCCCCCC(=O)O [MYRISTIC ACID],> 500 µM,> 500 µM,
CC/C=C\C/C=C\C/C=C\C/C=C\CCSCCCC(=O)O,26 µM,3.9 µM,0.2
CC/C=C\C/C=C\C/C=C\C/C=C\C/C=C\CCCC(=O)O [ICOSAPENT],13 µM,7.1 µM,0.5
